US12655142B2 (Merck Patent GmbH, priority 2019, dated 2026)
pIC50: −log10 of the molar value.

Experiments:
c-Kit(V654A) = molecular target: T1, c-Kit(V654A) (Homo sapiens, UniProt P10721, V654A); assay: c-Kit(V654A) assay (33P-ATP filter binding kinase assay); assay type: biochemical; settings: recombinant human c-Kit aa 544-end V654A, ATP 200 μM
T1 construct: recombinant human c-Kit, amino acids 544-end containing the V654A mutation; GST (N)
Procedure, shortened: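 Radiometric filter-binding read-out: substrate 33P incorporation counted by scintillation after P30 filtermat washes in 75 mM phosphoric acid and methanol. Enzyme: N-GST recombinant human c-Kit aa 544-end carrying V654A.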

[1] = molecular target: T2, GIST430/654 cell line expressing mutated constitutively active cKIT receptor tyrosine kinase (Δ560-576 deletion and V654A point mutation) (Homo sapiens, UniProt P10721, DEL560-576/V654A); assay: Cellular cKIT autophosphorylation (phospho-Y307-cKIT, Luminex bead assay) in GIST430/654 cells; assay type: cell-based; settings: compounds 45 min, read-out: GIST 430/654 IC50
T2 construct: endogenous in cells; host or cells: GIST430/654 cells
Procedure, shortened: (§1)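 GIST430 (Δ560-576) and imatinib-resistant GIST430/654 (plus V654A; grown with 100 nM imatinib) cells were plated in IMDM/15% FCS and treated next day with serially diluted compound for 45 min. Lysates were captured on anti-total-cKIT Luminex beads overnight at 4 °C and probed for phospho-Y307. IC50 was taken from percent of 0.3% DMSO control.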

[2] = molecular target: T3, GIST430 cell line expressing constitutive active cKIT receptor tyrosine kinase (Δ560-576 deletion) (Homo sapiens, UniProt P10721, DEL560-576); assay: Cellular cKIT autophosphorylation (phospho-Y307-cKIT, Luminex bead assay) in GIST430 cells; assay type: cell-based; settings: cKIT autophosphorylation, GIST430 cells, compounds 45 min; read-out: GIST 430 IC50
T3 construct: endogenous in cells; host or cells: GIST430 cells
Procedure, shortened: as §1

[3] = Determination of solubility; settings: 20 mM Sorensen phosphate buffer, pH 7.4, aqueous buffer, kinetic from dmso stock
Protocol: (§2) In a 96 well filtration plate, 2 μL of a 10 mM solution of the test compound in DMSO is added to 98 μL of 20 mM Sorensen phosphate buffer with pH 7.4. The mixture is incubated at room temperature for 120 min while agitating at 250 rpm followed by centrifugation at 2500 rpm for 3 min. After dilution by a factor of 2, the concentration of the test compound is determined using HPLC/UPLC with detection at a suitable wavelength and by comparison to a corresponding compound standard.

[4] = Determination of Efflux-Ratio (ER) in Caco-2 cells; settings: human, Caco-2, pH 7.4
[5] = pH 7.4
Protocol: as §2

T1 sequence (P10721 544-976 V654A): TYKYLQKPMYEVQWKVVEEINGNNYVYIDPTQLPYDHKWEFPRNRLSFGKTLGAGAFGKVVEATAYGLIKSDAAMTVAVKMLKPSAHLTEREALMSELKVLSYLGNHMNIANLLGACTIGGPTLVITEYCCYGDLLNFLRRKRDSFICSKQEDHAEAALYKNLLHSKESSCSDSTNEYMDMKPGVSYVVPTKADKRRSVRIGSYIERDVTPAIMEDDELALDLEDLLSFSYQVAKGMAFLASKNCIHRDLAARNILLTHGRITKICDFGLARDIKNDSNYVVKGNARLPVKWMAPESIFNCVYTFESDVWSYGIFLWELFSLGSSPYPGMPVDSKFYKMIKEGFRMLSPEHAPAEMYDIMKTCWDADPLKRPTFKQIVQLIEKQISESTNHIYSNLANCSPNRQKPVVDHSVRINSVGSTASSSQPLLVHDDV
T2 sequence (P10721 with tags, fused parts or gaps DEL560-576/V654A): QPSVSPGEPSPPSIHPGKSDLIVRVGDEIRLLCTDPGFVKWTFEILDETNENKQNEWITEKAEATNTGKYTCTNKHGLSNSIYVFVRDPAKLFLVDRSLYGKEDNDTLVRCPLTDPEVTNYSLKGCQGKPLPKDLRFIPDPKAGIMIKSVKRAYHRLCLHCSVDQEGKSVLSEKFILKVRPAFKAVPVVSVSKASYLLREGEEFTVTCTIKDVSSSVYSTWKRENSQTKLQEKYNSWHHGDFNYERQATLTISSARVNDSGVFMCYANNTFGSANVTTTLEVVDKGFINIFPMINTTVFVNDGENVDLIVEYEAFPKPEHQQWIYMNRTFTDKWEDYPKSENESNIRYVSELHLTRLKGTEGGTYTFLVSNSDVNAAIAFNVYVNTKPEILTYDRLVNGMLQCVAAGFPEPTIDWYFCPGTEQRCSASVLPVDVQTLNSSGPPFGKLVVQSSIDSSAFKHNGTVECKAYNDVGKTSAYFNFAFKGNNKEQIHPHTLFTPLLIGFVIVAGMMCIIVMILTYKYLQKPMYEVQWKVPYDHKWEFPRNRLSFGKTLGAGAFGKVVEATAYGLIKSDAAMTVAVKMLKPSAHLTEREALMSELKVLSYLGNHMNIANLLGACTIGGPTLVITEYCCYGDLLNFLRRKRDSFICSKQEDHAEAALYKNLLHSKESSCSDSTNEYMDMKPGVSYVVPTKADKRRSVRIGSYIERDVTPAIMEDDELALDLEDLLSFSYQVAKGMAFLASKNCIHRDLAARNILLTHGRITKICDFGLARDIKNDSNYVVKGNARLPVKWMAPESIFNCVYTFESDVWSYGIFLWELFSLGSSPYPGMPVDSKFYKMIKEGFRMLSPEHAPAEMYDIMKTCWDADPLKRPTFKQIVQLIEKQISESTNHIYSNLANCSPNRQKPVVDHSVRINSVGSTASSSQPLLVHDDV
T3 sequence (P10721 with tags, fused parts or gaps DEL560-576): as the sequence (P10721 with tags, fused parts or gaps DEL560-576/V654A) above, with A612V counted along it

Row | SMILES | pIC50 (c-Kit(V654A)) | pIC50 [1] | pIC50 [2] | solubility at 120 min [3] | efflux ratio at 2 h, 1 μM [4] | solubility [5]
1 | Cn1ncc(-c2ccc(CNc3cc(-c4cnc5cc(OCCCN6CCCC6)ccn45)ncn3)cc2)n1 [A84, [4-(2-methyl-2H-[1,2,3]triazol-4-yl)-benzyl]-{6-[7-(3-pyrrolidin-1-yl-propoxy)-imidazo[1,2-a]pyridin-3-yl]-pyrimidin-4-yl}-amine] | 8.55 | 7.35 | 8.62 | ≥ 25 µM | < 15 | 
2 | Cn1cc(-c2ccc(CNc3cc(-c4cnc5cc(OCCCN6CCC6)ccn45)ncn3)cc2)cn1 [A102] | 8.01 | 7.34 | 8.52 |  |  | at least 25 μM
3 | Cn1ncc(-c2ccc(CNc3cc(-c4cnc5cc(OCCCN6CCC6)ccn45)ncn3)cc2)n1 [A120, {6-[7-(3-azetidin-1-yl-propoxy)-imidazo[1,2-a]pyridin-3-yl]-pyrimidin-4-yl}-[4-(2-methyl-2H-[1,2,3]triazol-4-yl)-benzyl]-amine] | 8.54 | 7.28 | 8.64 | ≥ 25 µM | < 15 | 
4 | F[C@@H]1CCN(c2ccc(CNc3cc(-c4cnc5ccccn45)ncn3)cn2)C1 [A153, N-({6-[(3R)-3-fluoropyrrolidin-1-yl]pyridin-3-yl}methyl)-6-{imidazo[1,2-a]pyridin-3-yl}pyrimidin-4-amine] | 8.19 | 6.92 | 8.19 | ≥ 25 µM | < 15 | 
